These results are taken from article PMC5795001, “The activity of the C4-dicarboxylic acid chemoreceptor of Pseudomonas aeruginosa is controlled by chemoattractants and antagonists” (Scientific Reports, 2018).

Assay [1] concerns the target T1, PA2652-LBD (Pseudomonas aeruginosa, UniProt Q9I0I6).
T1 construct: The DNA fragment encoding the LBD of PA2652 (Lys^34–Thr^205) was amplified; His-tag (vector-encoded by pET28b(+) via NdeI site); made in house; host or cells: Escherichia coli BL21 (DE3)
Nature of the assay: biochemical. It is filed as binding, Pseudomonas aeruginosa PAO1. On the procedure: To unambiguously determine ligand binding, we conducted Isothermal Titration Calorimetry (ITC)[40] binding studies with the purified protein.
(§1) Experiments were conducted on a VP-microcalorimeter (Microcal, Amherst, MA, USA) at 20 °C. PA2652-LBD was dialyzed overnight against TNG buffer, adjusted to a concentration of 20–35 μM and placed into the sample cell of the instrument. The protein was titrated by the injection of 9.6–14.4 μl aliquots of 1–20 mM ligand solutions that were prepared in TNG buffer (20 mM Tris/HCl, 150 mM NaCl, 10% (v/v) glycerol, pH 6.8) immediately before use. The mean enthalpies measured from the injection of ligands into buffer were subtracted from raw titration data prior to data analysis with the MicroCal version of ORIGIN. Data were fitted with the “One binding site model”.

Assay [2] deals with T1, PA2652-LBD. Put plainly: ITC titration with L-malic acid in absence and presence of antagonists (competition). It is filed as binding, Pseudomonas aeruginosa PAO1.
Description: In order to understand the mechanistic role of these antagonistics in the chemotaxis behaviour of P. aeruginosa, we first carried out ITC binding studies. In these assays, we measured the affinity of L-malic acid for PA2652-LBD in the presence of different concentrations of citraconic and D,L-methylsuccinic acids. […] Considering the close structural similarity of antagonists and L-malic acid (Fig. 3) it is likely that these compounds compete for binding at the same site at PA2652.
Figure 7 Attractants and antagonists compete for binding at PA2652-LBD in vitro. Isothermal titration calorimetry analysis of the binding of L-malic acid to PA2652-LBD in the absence and presence of 2 or 20 mM of the antagonists, citraconic and D,L-methylsuccinic acids. Upper panel: Titration raw data for the injection of 9.6 μl aliquots of 1 mM of L-malic acid into 20 μM of protein in the absence and presence of antagonists (present both in the injector syringe and sample cell). Lower panel: Integrated, dilution heat corrected and concentration normalized peak areas fitted with the “One binding site” model of ORIGIN. The apparent binding constants are listed in Supplementary Table S2.
as §1

Assay [3] has as its system Pseudomonas aeruginosa PAO1 (wt and PA2652 mutant). Put plainly: Growth experiments with ligands as sole carbon source. As to conditions: M9 minimal medium, 10 mM carbon source. It is filed as cell-based. The text has this: To evaluate the physiological relevance of the ligands identified, we first addressed the question of whether they could support bacterial growth as sole carbon source. To this end, we conducted growth experiments of the wild type (wt) strain and a mutant defective in PA2652 in minimal medium supplemented with the different ligands as sole carbon sources.
Bacterial strains used in this study are listed in Supplementary Table S3. Pseudomonas aeruginosa PAO1 and its derivative strains were routinely grown at 37 °C in Luria Broth (LB; 5 g yeast extract l^−1, 10 g Bacto tryptone l^−1 and 5 g NaCl l^−1) or M9 medium supplemented with 1 mM MgSO4, 6 mg l^−1 Fe-citrate, trace elements[81] and 15 mM glucose as carbon source. For growth experiments to assess the capacity of PA2652-LBD ligands to support growth a sole C-source, PAO1 cells were pre-cultured overnight in M9 medium supplemented with 10 mM glucose and washed twice with M9 medium salts, prior to the inoculation of M9 medium containing10 mM of the different carbon sources. When necessary, the pH of the medium was adjusted to 7.0 prior to inoculation. Bacterial growth over the time was monitored using Bioscreen Microbiological Growth Analyser (Oy Growth Curves Ab Ltd, Helsinki, Finland). Escherichia coli strains were grown at 37 °C in LB. Escherichia coli DH5α was used as a host for gene cloning. When appropriate, antibiotics were used at the following final concentrations (in µg ml^−1): kanamycin, 25 (E. coli strains) and 100 (Pseudomonas strains); tetracycline, 40.

Assay [4] deals with Pseudomonas aeruginosa PAO1. Put plainly: Quantitative capillary chemotaxis assay, wild type. In kind it is cell-based. On the procedure:
Secondly, we assessed the capacity of the ligands identified to induce chemotaxis. To this end, we carried out quantitative capillary chemotaxis assays using the wt strain and PA2652 ligands at concentrations ranging from 10 µM to 100 mM.
Overnight cultures of P. aeruginosa strains were diluted to an OD660 of 0.05 in MS medium (30 mM Na2HPO4, 20 mM KH2PO4, 25 mM NH4NO3, 1 mM MgSO4) supplemented with 6 mg l^−1 Fe-citrate, trace elements[81] and 15 mM glucose as carbon source, and grown at 37 °C with orbital shaking (200 rpm). At an OD660 of 0.4 ([…]) cultures were centrifuged at 1,700 × g for 5 min and the resulting pellet was washed twice with chemotaxis buffer (50 mM potassium phosphate, […], 0.05% (v/v) glycerol, pH 7.0). Subsequently, the cells were resuspended in the same buffer, adjusted to an OD660 of 0.1 and 230 µl aliquots of the bacterial cultures were placed into 96-well plates. For the quantitative assays, one-microliter capillary tubes (Microcaps, Drummond Scientific, Ref. P1424) were heat-sealed at one end and filled with either the chemotaxis buffer (negative control) or chemotaxis buffer containing the chemoeffectors to test. The capillaries were immersed into the bacterial suspensions at its open end. After 30 min at room temperature, capillaries were removed from the bacterial suspensions, rinsed with sterile water and the content expelled into 1 ml of M9 medium salts. Serial dilutions were plated onto M9 minimal medium (containing the appropriate antibiotics) supplemented with 15 mM glucose as carbon source. The number of colony forming units was determined after overnight incubation. In all cases, data were corrected with the number of cells that swam into buffer containing capillaries.

[5] abbreviates: L-malic acid titration in presence of 2 mM D,L-methylsuccinic acid.
Where [6] appears, read: L-malic acid titration in presence of 2 mM citraconic acid.
Where [7] appears, read: L-malic acid titration in presence of 20 mM D,L-methylsuccinic acid.
The mark [8] stands for this setting: L-malic acid titration in presence of 20 mM citraconic acid.
Where [9] appears, read: L-malic acid titration, no antagonist.

T1 sequence (Q9I0I6 34-205): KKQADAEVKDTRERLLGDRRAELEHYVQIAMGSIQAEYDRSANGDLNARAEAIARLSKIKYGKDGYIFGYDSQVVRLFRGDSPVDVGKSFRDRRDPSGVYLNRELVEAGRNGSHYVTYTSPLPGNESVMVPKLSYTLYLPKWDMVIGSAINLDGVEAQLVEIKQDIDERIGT

On to `O=C(O)C[C@H](O)C(=O)O` [L-malic acid], for which the Kd on PA2652-LBD [1] and on PA2652-LBD [2] was 23 ± 1 µM each time. Moreover, the “TΔS (entropy change of binding)” value on PA2652-LBD [1] (ITC) was 2.1 ± 1 kcal/mol. Besides, the “Binding in ITC” value on PA2652-LBD [1] (YES/NO) is “YES”. For the same molecule, the “n (apparent)” value at PA2652-LBD [2] (setting [5]) was 0.6 ± 0.1; on PA2652-LBD [2] (setting [6]) it was 0.9 ± 0.2; on PA2652-LBD [2] (setting [7]) it was 1.1 ± 0.9; on PA2652-LBD [2] (setting [8]) it was 1.1 ± 1; at PA2652-LBD [2] (setting [9]) it was 1 ± 0.1. In addition, the “∆H (apparent)” value is given as -6.7 ± 1 kcal/mol on PA2652-LBD [2] (setting [5]); -5.1 ± 1 kcal/mol on PA2652-LBD [2] (setting [6]); -2.6 ± 2 kcal/mol at PA2652-LBD [2] (setting [7]); -3.3 ± 5 kcal/mol at PA2652-LBD [2] (setting [8]); -4.1 ± 0.6 kcal/mol at PA2652-LBD [2] (setting [9]). In addition, the “Change of apparent affinity of L-malic acid” value on PA2652-LBD [2] (antagonists increased to 20 mM) was “further reduction in the apparent affinity”; at PA2652-LBD [2] (in the presence of 2 mM antagonists (citraconic or D,L-methylsuccinic acid)), “decreased approximately by a factor of two”. For the same molecule, the “Ability to support bacterial growth as sole carbon source” value in assay [3] was “able to efficiently sustain growth”. For the same molecule, the “Role of PA2652 ligand (chemoattractant or antagonist)” value in assay [4] (authors' classification from chemotaxis results) is “chemoattractants”. Moreover, the Chemotactic response entry in assay [4] (wt PAO1, ligands at 10 µM to 100 mM) is reported as “strong chemotaxis responses”.
